Assay results from publication PMC10810651, “Discovery of novel and potent CDK8 inhibitors for the treatment of acute myeloid leukaemia” (Journal of Enzyme Inhibition and Medicinal Chemistry, 2024).
Like-named read-outs stand apart in the source and are kept apart here.

Legend:
[1] = biological target: CDK8 (Homo sapiens, UniProt P49336); assay: CDK8 enzyme activity assay (ADP-Glo Kinase Assay); assay type: biochemical; settings: means ± SD
Method: Some of them with high inhibition rates were further measured for their IC50 values. Compound SEL-120 34 A was selected as a positive control. [table] [table] page 14: CO2 atmosphere incubator for 24 h. Then, medium with compound at the concentrations of 100, 20, 4, 0.8, 0.016 μM was added into each well for another 48 h and incubated with CCK-8 (10 μL) for 2 h at 37 °C. The absorbance value at 450 nm was measured by the microplate reader (PerkinElmer Envision). 1.4 Kinase Assay The kinase inhibition was detected by ADP-Glo™ Kinase Assay (Promega) using a black 384-well plate. The active CDK8 kinase was diluted in mixture (5 ng enzyme, 0.5 μg substrate, 50 μM DTT, 1 μL reaction buffer and added ddH2O to 3 μL each well) and the final ATP concentrations of was 50 μM. After incubation at room temperature, ADP-Glo™ solution and kinase detection reagent was added. The data was collected by the microplate reader. 1.5 Cellular thermal shift assay HCT-116 cells were cultured in cell culture dishes and treated with 5 μM compound 12 for 4 h. HCT-116 cells were collected, washed by PBS and cell suspensions were divided into 12 PCR tubes equally. Then,11 tubes were heated at 37, […] After that, cells were broken by ultr asonic treatment and centrifuged at 12000 rpm for 20 min. The supernatant was analyzed by western blot. 1.6 Biotin-pulldown assay After co-treated with 2 μM biotinylated compound and compound 12 for 12 h, HCT-116 cells were lysed with NP-40 containing PMSF and centrifuged at 14000 r for 30 min at 4 °C. Then, 40 μL supernatant was used as the input by adding 10 μL 5×SDS loading buffer, and the remains were mixed with Streptavidin Agarose (Novex, Carlsbad, CA, USA). After 6 h incuba tion at 4 °C, the beads were washed three times using lysis buffer and resuspended in 2× SDS loading buffer. HEK -293T cells overexpressed flag -tagged CDK8 were treated using above method. The samples were analyzed by western blot.

[2] = In vivo pharmacokinetic evaluation
Method: Pharmacokinetic data is an important parameter for small molecule drugs. Here, the pharmacokinetic data of compound 12 was performed. […] Based on the above data analysis, we believed it is possible that compound 12 could be used as an oral medication (Figure 7).

[3] = test system: MGC-803; assay: Antiproliferative CCK-8 assay, MGC-803; assay type: cell-based; settings: Homo sapiens; MGC-803, CCK-8 assay, means ± SD; read-out: GC50 (the source's name)
Excerpt: (§1) Compounds12, 13 and 30 were selected for further cell activity assessments based on the enzymatic activity assessment results. molm-13 and MV4-11(acute myeloid lineage leukaemia cells), MGC-803 (gastric cancer cell), MDA-MB-231(breast cancer cell), A375 (melanoma cell), A549 (lung cancer cell), HCT-116, SW-480 and HT-29 (colorectal cancer cells) were selected to evaluate antitumor activity in vitro, GES-1 (gastric mucosal epithelial cell) was selected to evaluate toxicity in vitro.
(§2) CO2 atmosphere incubator for 24 h. Then, medium with compound at the concentrations of 100, 20, 4, 0.8, 0.016 μM was added into each well for another 48 h and incubated with CCK-8 (10 μL) for 2 h at 37 °C. The absorbance value at 450 nm was measured by the microplate reader (PerkinElmer Envision). […]

[4] = test system: A549; assay: Antiproliferative CCK-8 assay, A549; assay type: cell-based; settings: Homo sapiens; A549, CCK-8 assay, means ± SD; read-out: GC50 (the source's name)
Excerpt: as §1, §2

[5] = test system: MDA-MB-231; assay: Antiproliferative CCK-8 assay, MDA-MB-231; assay type: cell-based; settings: Homo sapiens; MDA-MB-231, CCK-8 assay, means ± SD; read-out: GC50 (the source's name)
Excerpt: as §1, §2

[6] = biological target: CDK9 (Homo sapiens, UniProt P50750); assay: CDKs selectivity, CDK9; assay type: biochemical
Sequence of CDK9 (P50750 whole entry): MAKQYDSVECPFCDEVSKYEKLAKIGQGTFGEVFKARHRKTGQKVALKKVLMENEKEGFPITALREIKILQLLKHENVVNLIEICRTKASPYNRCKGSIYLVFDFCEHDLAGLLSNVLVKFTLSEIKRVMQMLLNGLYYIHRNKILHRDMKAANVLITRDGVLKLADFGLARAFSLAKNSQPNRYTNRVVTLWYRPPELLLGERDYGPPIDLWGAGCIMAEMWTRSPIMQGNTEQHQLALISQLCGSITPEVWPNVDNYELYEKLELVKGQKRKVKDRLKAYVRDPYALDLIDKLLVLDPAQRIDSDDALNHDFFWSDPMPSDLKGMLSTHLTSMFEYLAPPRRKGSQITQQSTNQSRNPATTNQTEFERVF
Excerpt: CDK7 and CDK9 with the same transcription function and CDK2 and CDK6 were selected to evaluate the selectivity of compound 12.

[7] = test system: A375; assay: Antiproliferative CCK-8 assay, A375; assay type: cell-based; settings: Homo sapiens, A-375; A375, CCK-8 assay, means ± SD; read-out: GC50 (the source's name)
Excerpt: as §1, §2

[8] = test system: STAT5 S726; assay: Phosphorylation of STAT5 S726, western blot; assay type: cell-based; settings: HL-60 cells, 12 h
Method: It has been reported that CDK8 could specifically target the transactivation domain of STAT1 at Ser727 phosphorylation. HCT-116 cells were treated with compounds 12 with different concentrations of 1 μM, 2 μM, 4 μM separately to verify compound 12 could inhibit the phosphorylation of STAT1 Ser727. […] It’s reported that CDK8 was also involved in S726 phosphorylation of STAT5 in AML cells.
Figure 6. Compound 12 inhibited phosphorylation of STAT1 S727 and STAT5 S726. (A) Compound 12 suppressed the phosphorylation of STAT1 S727 in a dose-dependent manner. HCT-116 cells were treated with compound for 12 h. (B) Compound 12 suppressed the phosphorylation of STAT5 S726 in a dose dependent manner. HL-60 cells were treated with or without compound for 12 h. The samples were analysed by Western blot.
1.7 The effect of compound on phosphorylation of STAT1 S727
HCT-116 cells were seeded into 60 mm cultural dishes at a density of 1.5×10^6 cells per dishes. […] Levels of total STAT1, phosphorylated STAT1 S727, Y701 and GAPDH were analyzed. […]
Levels of total STAT5, phosphorylated STAT5 S726 and GAPDH were analyzed.
The results were expressed as the means ± SEMs (SPSS software), and the differences between groups were evaluated using Turkey’s method (GraphPad Software). […]

[9] = blood, iv, 2 mg/kg, 2 mg/kg (iv)
[10] = blood, po, 10 mg/kg, 10 mg/kg (po)

Sequence of CDK8 (P49336 whole entry): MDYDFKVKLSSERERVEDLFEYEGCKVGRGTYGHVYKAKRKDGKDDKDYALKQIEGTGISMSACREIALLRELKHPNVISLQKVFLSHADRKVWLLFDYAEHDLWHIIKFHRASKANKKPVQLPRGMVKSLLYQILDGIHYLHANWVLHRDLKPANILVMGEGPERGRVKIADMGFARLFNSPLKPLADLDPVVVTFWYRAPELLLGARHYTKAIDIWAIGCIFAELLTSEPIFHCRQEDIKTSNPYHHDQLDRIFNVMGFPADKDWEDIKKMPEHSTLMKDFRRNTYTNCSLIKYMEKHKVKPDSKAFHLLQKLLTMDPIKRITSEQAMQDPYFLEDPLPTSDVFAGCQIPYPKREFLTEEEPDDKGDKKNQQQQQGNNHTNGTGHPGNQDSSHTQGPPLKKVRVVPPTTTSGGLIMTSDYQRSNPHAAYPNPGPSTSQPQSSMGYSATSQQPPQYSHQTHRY
Sequence of CDK8 (P24863 whole entry partner): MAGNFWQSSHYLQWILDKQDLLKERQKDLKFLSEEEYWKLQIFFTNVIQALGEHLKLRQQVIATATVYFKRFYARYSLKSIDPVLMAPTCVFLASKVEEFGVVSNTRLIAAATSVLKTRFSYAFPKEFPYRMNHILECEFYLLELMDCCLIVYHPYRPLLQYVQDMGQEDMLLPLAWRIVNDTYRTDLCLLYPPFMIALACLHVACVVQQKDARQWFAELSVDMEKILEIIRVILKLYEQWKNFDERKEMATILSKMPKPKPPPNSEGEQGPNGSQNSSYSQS

For `NC(=O)c1cccc(-c2cnc3[nH]cc(-c4ccoc4)c3c2)c1` [Compound 12, 3-(3-(furan-3-yl)-1H-pyrrolo[2,3-b]pyridin-5-yl)benzamide], which inhibition at 0.2 µM ([1]; CDK8, 200 nM, two experiments, read-out: Inhibition rate @ 200 nM (%)) is on record?
The inhibition at 0.2 µM was 80.9 ± 3.5%.

And the IC50 ([1]; three experiments)?
Its IC50 is 39.2 ± 6.3 nM.

And the “AUC 0-∞” value ([2]; 2 mg/kg (iv))?
The value was 829.75 ng·h/mL.

What about the Cmax ([2]; 2 mg/kg (iv)) of the same molecule?
Its Cmax is 647.79 ng/mL.

What about the “AUC 0-∞” value ([2]; 10 mg/kg (po)) of the same molecule?
Its value is 1611.67 ng·h/mL.

What about the CL ([2]; 10 mg/kg (po)) of the same molecule?
The CL was 104 mL/min/kg.

What about the Cmax ([2]; 10 mg/kg (po)) of the same molecule?
The Cmax was 821.82 ng/mL.

And the AUC(0-inf) [2, 9]?
Its AUC(0-inf) is 830 ng·h/mL.

What about the half-life [2, 9] of the same molecule?
The half-life was roughly 1.12 h.

And the Cmax ([2]; blood, iv, 2 mg/kg, 2 mg/kg (iv), read-out: Cmax)?
The Cmax was 648 ng/mL.

What about the AUC(0-inf) [2, 10] of the same molecule?
Its AUC(0-inf) is 1610 ng·h/mL.

And the half-life [2, 10]?
Its half-life is 0.95 h.

What about the Cmax ([2]; blood, po, 10 mg/kg, 10 mg/kg (po), read-out: Cmax) of the same molecule?
The Cmax was 822 ng/mL.

What about the MRT ([2]; blood, 2 mg/kg (iv)) of the same molecule?
The MRT was 1.64 h.

And the Tmax ([2]; blood, 2 mg/kg (iv))?
Its Tmax is 0.33 h.

And the clearance ([2]; blood, 2 mg/kg (iv))?
The clearance was 40.8 mL/min/kg.

What about the MRT ([2]; blood, 10 mg/kg (po)) of the same molecule?
Its MRT is 2.24 h.

What about the Tmax ([2]; blood, 10 mg/kg (po)) of the same molecule?
Its Tmax is 0.88 h.

What about the bioavailability ([2]; blood, 10 mg/kg (po) vs 2 mg/kg (iv)) of the same molecule?
Its bioavailability is 38.8%.

And the IC50 [3]?
The IC50 was 11700 ± 1930 nM.

And the IC50 [4]?
The IC50 was 15500 ± 2780 nM.

What about the IC50 [5] of the same molecule?
Its IC50 is greater than 50000 nM.

And the IC50 [6]?
Its IC50 is 474 ± 25.3 nM.

What about the IC50 [7] of the same molecule?
The IC50 was 1000 ± 230 nM.

And the “Phosphorylation of STAT5 S726” value [8]?
Its value is “could inhibit phosphorylation of STAT5 S726 in a dose-dependent manner”.
